Experimental data reported in patent US10966951B2, “Compositions and methods for lowering triglycerides in a subject having reduced kidney function” (Amarin Pharmaceuticals Ireland Limited, priority 2017, dated 2021).

Tests used:
Type in all cases: in vivo, human
[1] = test system: subjects with Age-Associated Memory Impairment; assay: Safety and tolerability, 6-week AAMI study (Example 2)
Experimental: Ninety-four subjects were randomized into one of six groups: 1 g E-EPA daily (n=23), 2 g E-EPA daily (n=24), 4 g E-EPA daily (n=24), 1 g placebo daily (n=7), 2 g placebo daily (n=8), and 4 g placebo daily (n=8).
All randomized subjects that received at least 1 dose of study medication were included in the Safety Population.
Safety evaluations were based on the safety population. Safety and tolerability were assessed in terms of AEs, vital signs, 12-lead ECG, clinical laboratory data, medical history, and study drug compliance. Safety and tolerability data were presented by treatment group.

[2] = test system: patients with reduced kidney function (eGFR<90 mL/min/1.73 m^2) and hsCRP≥2.0 mg/L; assay: Post-hoc ANCHOR analysis, reduced kidney function and hsCRP≥2.0 mg/L (Example 6); conditions: 4 g/day
Experimental: (§1) CVD-related (e.g., atherogenic) parameters were analyzed in a post-hoc study of 152 patients from the multi-center, placebo-controlled, randomized double-blind, 12-week study described in Example 1. These 152 patients have reduced kidney function (e.g., eGFR<90 mL/min/1.73 m^2 for ≥3 months) and hsCRP≥2.0 mg/L.
72 patients were randomized to E-EPA and 80 patients were randomized to placebo. In total, atherogenic parameters were analyzed in all 152 patients, 54% of which were male and 99% of which were white. The mean age of the 152 patients was 64 years old.
The primary objective of this post-hoc study, was to determine if and how 4 g of daily of >96% E-EPA, compared to placebo, affects patients with reduced kidney function, elevated hsCRP (e.g, hsCRP≥2.0 mg/L), and high triglyceride levels. The secondary objective was to determine if and how 4 g daily of >96% E-EPA, compared to placebo, affected CVD-related parameters in patients with a high risk for CVD and fasting TG levels 200 mg/dL and <500 mg/dL, despite treatment to LDL-C goal on statin therapy. These CVD-parameters include lipid levels, lipoprotein levels, and inflammatory markers, such as TC, LDL-C, HDL-C, vLDL-C, vLDL-TG, RLP-C, non-HDL-C, Apo B, Apo C-III, Lp-PLA, hsCRP, and ox-LDL, and in plasma and RBC EPA concentration. CVD-parameters were analyzed for median difference in percent change from baseline to week 12 in subjects receiving 4 g/day of E-EPA and those receiving the placebo.
The median difference in lipid/lipoprotein, apolipoprotein, and inflammatory parameters were determined from baseline to week 12 for 4/g day of E-EPA compared to placebo.

[3] = test system: patients with chronic kidney disease (eGFR<60 mL/min/1.73 m^2); assay: Post-hoc ANCHOR analysis, chronic kidney disease: lipid, lipoprotein, oxidation and inflammation parameters (Example 7); conditions: CKD
Experimental: as §1, with “55” for “152”, “chronic” for “reduced”, “disease” for “function”, “eGFR<60” for “eGFR<90”, “months). There was no lower limit of eGFR specified.” for “months) and hsCRP≥2.0 mg/L.”
(§2) 19 patients were randomized to E-EPA and 36 patients were randomized to placebo. One patient in each group discontinued and was excluded from efficacy analyses (but not safety analyses). EPA levels in plasma and RBC were measured in 23 of the 55 patients. These measurements were taken on 7 of the patients randomized to E-EPA and on 16 of the patients that were randomized to the placebo.
The primary objective of this post-hoc study, which is based on an intention to treat, was to determine if and how 4 g daily of >96% E-EPA affects patients with stage 3 chronic kidney disease (e.g., eGFR<60 mL/min/1.73 m^2 for ≥3 months). The secondary objective was to determine if and how 4 g daily of >96% E-EPA, compared to a placebo, affected CVD-related parameters in patients with a high risk of CVD and fasting TG levels ≥[…] and <500 mg/dL, despite LDL-C goal on statin therapy. These CVD-parameters include lipid levels, lipoprotein levels, and inflammatory markers, such as TC, LDL-C, HDL-C, vLDL-C, vLDL-TG, RLP-C, non-HDL-C, Apo B, Apo C-III, Lp-PLA, hsCRP, and ox-LDL, and in plasma and RBC EPA concentration. CVD-parameters were analyzed for median difference in percent change from baseline to week 12 in subjects receiving 4 g/day of E-EPA and those receiving the placebo.
(§3) The median difference in percent change from baseline between 4 g/day of E-EPA and placebo for the primary efficacy variable and additional assessments were estimated using the Hodges-Lehmann method (P values from the Wilcoxon rank-sum test for treatment comparisons). Using the Hodges-Lehmann method, departures from normal distribution were observed; for normally distributed parameters, an analysis of covariance model was used with least squares (LS) means and standard errors (SE). Missing values were imputed using the last-observation-carried-forward method. For all post hoc analyses, the alpha for statistical significance was 0.05.

[4] = test system: patients with chronic kidney disease (eGFR<60 mL/min/1.73 m^2); assay: Renal parameters and safety in ANCHOR patients with CKD (Example 7)
Experimental: as §1, with “55” for “152”, “chronic” for “reduced”, “disease” for “function”, “eGFR<60” for “eGFR<90”, “months). There was no lower limit of eGFR specified.” for “months) and hsCRP≥2.0 mg/L.”
as §2, §3

- albumin after 12 weeks ([2]; after 12 weeks): 4.4 g/dL
- serum creatinine after 12 weeks ([2]; after 12 weeks): 0.9 mg/dL
- albumin before treatment ([2]; before the 12 weeks): 4.5 g/dL
- eGFR before treatment ([2]; before the 12 weeks): 72.4 mL/min/1.73 m^2
- serum creatinine before treatment ([2]; before the 12 weeks): 0.9 mg/dL
Structure (SMILES): CC/C=C\C/C=C\C/C=C\C/C=C\C/C=C\CCCC(=O)OCC [E-EPA, ethyl eicosapentaenoate]
- subjects with nausea Possibly Related to the study drug ([1]; 1 g cohort): two
- nausea Probably Related to the study drug ([1]; 1 g, one subject): experienced nausea that was Probably Related to the study drug
- subjects with nausea Possibly Related to the study drug ([1]; 2 g cohort): one
- SAE reported ([1]; 2 g treatment group): One SAE
- subjects discontinued due to TEAEs ([1]; 2 g treatment group): 2 subjects
- relatedness of the SAE (worsening epigastric chest pain) ([1]; 2 g, one subject): unrelated to the study drug
- subjects with nausea Possibly Related to the study drug ([1]; 4 g cohort): two
- diarrhea Probably Related to the study drug ([1]; 4 g, one subject): experienced diarrhea that was Probably Related to the study drug
- TEAEs Definitely Related to the study drug ([1]; all groups): No TEAEs were Definitely Related
- VLDL-C Median Difference in % Change From Baseline vs Placebo ([3]; 4 g/day vs placebo, week 12): −26.7%
- hsCRP Median Difference in % Change From Baseline vs Placebo ([3]; 4 g/day vs placebo, week 12, listed as Icosapent Ethyl): −25.0%
- Apo B Baseline ([3]; 4 g/day, baseline): 87.0 mg/dL
- HDL-C Baseline ([3]; 4 g/day, baseline): 35.0 mg/dL
- LDL-C Baseline ([3]; 4 g/day, baseline): 76.0 mg/dL
- VLDL-C Baseline ([3]; 4 g/day, baseline): 42.0 mg/dL
- hsCRP Baseline ([3]; 4 g/day, baseline): 1.9 mg/L
- RLP-C Baseline ([3]; 4 g/day, baseline, n = 9): 17.0 mg/dL
- Apo B Change From Baseline, % ([3]; 4 g/day, week 12): −7.2%
- Apo B End of Treatment ([3]; 4 g/day, week 12): 83.0 mg/dL
- Apo C-III Change From Baseline, % ([3]; 4 g/day, week 12): −7.3%
- HDL-C Change From Baseline, % ([3]; 4 g/day, week 12): 0.9%
- LDL-C Change From Baseline, % ([3]; 4 g/day, week 12): −6.5%
- Lp-PLA2 End of Treatment ([3]; 4 g/day, week 12): 150.0 ng/mL
- Non-HDL-C Change From Baseline, % ([3]; 4 g/day, week 12): −6.4%
- Ox-LDL Change From Baseline, % ([3]; 4 g/day, week 12): −9.5%
- RLP-C End of Treatment ([3]; 4 g/day, week 12): 10.0 mg/dL
- TC Change From Baseline, % ([3]; 4 g/day, week 12): −8.1%
- hsCRP Change From Baseline, % ([3]; 4 g/day, week 12): −16.9%
- hsCRP End of Treatment ([3]; 4 g/day, week 12): 2.1 mg/L
- nausea, nasopharyngitis, and arthralgia ([4]; 4 g/day): not reported by any patients
- eGFR median difference in change from baseline compared with placebo ([4]; 4 g/day vs placebo, P=0.1983): −7.8%
- serum creatinine median difference in change from baseline compared with placebo ([4]; 4 g/day vs placebo, P=0.1983): 6.5%
- BUN median difference in change from baseline compared with placebo ([4]; 4 g/day vs placebo, P=0.5291): 5.5%
- BUN median difference in change from baseline compared with placebo ([4]; 4 g/day vs placebo, P=0.5471): 1.0 mg/dL
- patients reporting diarrhea ([4]; 4 g/day, 2 patients): 10.5%
- patients reporting TEAE ([4]; 4 g/day, 11 of 19 patients): 57.9%
- serum albumin change from baseline ([4]; 4 g/day, 12-week study): no significant median changes from baseline
- BUN, median (IQR), baseline ([4]; 4 g/day, baseline): 24.5 (12.0) mg/dL
- eGFR, median (IQR), baseline ([4]; 4 g/day, baseline): 55.0 (13.8) mL/min/1.73 m^2
- serum creatinine, median (IQR), baseline ([4]; 4 g/day, baseline): 1.2 (0.3) mg/dL
- changes in serum creatinine, blood urea nitrogen (BUN), or eGFR from baseline to week 12 ([4]; 4 g/day, compared to placebo control): did not produce significant changes
- BUN, median (IQR), week 12 ([4]; 4 g/day, week 12): 22.5 (11.0) mg/dL
- eGFR, median (IQR), week 12 ([4]; 4 g/day, week 12): 56.0 (12.9) mL/min/1.73 m^2
- serum creatinine, median (IQR), week 12 ([4]; 4 g/day, week 12): 1.2 (0.4) mg/dL
